# Laboratory results: PubChem BioAssay (NCI)
#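 Cultured in 96-well plates, cells were exposed to test compound for 48 hours across five concentrations. TGI denotes the concentration required for complete inhibition of growth.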
# Experiments:
# Test in all cases: NCI anticancer screen, dose series, 48 h
# UACC-62 melanoma = system: UACC-62 melanoma
# NCI-H226 lung = system: NCI-H226 lung
# RPMI-8226 leukemia = system: RPMI-8226 leukemia
# T-47D breast = system: T-47D breast
# MDA-N = system: MDA-N
# OVCAR-4 ovarian = system: OVCAR-4 ovarian
# HCT-116 colon = system: HCT-116 colon
# SF-539 CNS = system: SF-539 CNS
# A549 NSCLC = system: A549 NSCLC
# PC-3 prostate = system: PC-3 prostate
# SNB-75 CNS = system: SNB-75 CNS
# DU-145 prostate = system: DU-145 prostate
# SK-MEL-28 melanoma = system: SK-MEL-28 melanoma
# LOX IMVI melanoma = system: LOX IMVI melanoma
# SK-OV-3 ovarian = system: SK-OV-3 ovarian
# OVCAR-5 ovarian = system: OVCAR-5 ovarian
# NCI/ADR-RES ovarian = system: NCI/ADR-RES ovarian
# MDA-MB-231 breast = system: MDA-MB-231 breast
# 786-0 renal = system: 786-0 renal
# SK-MEL-2 melanoma = system: SK-MEL-2 melanoma
# SF-295 CNS = system: SF-295 CNS
# UO-31 renal = system: UO-31 renal
# M14 melanoma = system: M14 melanoma
# SNB-19 CNS = system: SNB-19 CNS
# SK-MEL-5 melanoma = system: SK-MEL-5 melanoma
# MCF7 breast = system: MCF7 breast
# UACC-257 melanoma = system: UACC-257 melanoma
# NCI-H23 lung = system: NCI-H23 lung
# HOP-92 NSCLC = system: HOP-92 NSCLC
# KM12 colon = system: KM12 colon
# HOP-62 NSCLC = system: HOP-62 NSCLC
# SW-620 colon = system: SW-620 colon
# HT29 colon = system: HT29 colon
# MDA-MB-435 = system: MDA-MB-435
# HL-60(TB) leukemia = system: HL-60(TB) leukemia
# HCT-15 colon = system: HCT-15 colon
# CCRF-CEM leukemia = system: CCRF-CEM leukemia
# U251 CNS = system: U251 CNS
# EKVX NSCLC = system: EKVX NSCLC
# OVCAR-8 ovarian = system: OVCAR-8 ovarian
# OVCAR-3 ovarian = system: OVCAR-3 ovarian
# NCI-H522 lung = system: NCI-H522 lung
# ACHN renal = system: ACHN renal
# TK-10 renal = system: TK-10 renal
# MOLT-4 leukemia = system: MOLT-4 leukemia
# MALME-3M melanoma = system: MALME-3M melanoma
# IGROV1 ovarian = system: IGROV1 ovarian
# HS 578T breast = system: HS 578T breast
# BT-549 breast = system: BT-549 breast
# SN12C renal = system: SN12C renal
# RXF 393 renal = system: RXF 393 renal
# COLO 205 colon = system: COLO 205 colon
# HCC-2998 colon = system: HCC-2998 colon
# CAKI-1 renal = system: CAKI-1 renal
# SF-268 CNS = system: SF-268 CNS
# K-562 leukemia = system: K-562 leukemia
# NCI-H460 lung = system: NCI-H460 lung
# SR leukemia = system: SR leukemia
# A498 renal = system: A498 renal
smiles,measurement,setting,value
C=C1C(=O)O[C@@H]2C[C@@]3(C)CC(=O)C=C(C)[C@@H]3C[C@H]12,TGI,UACC-62 melanoma,30.4 µM
same,TGI,NCI-H226 lung,> 100 µM
same,TGI,RPMI-8226 leukemia,5.45 µM
same,TGI,T-47D breast,28.3 µM
same,TGI,MDA-N,17.2 µM
same,TGI,OVCAR-4 ovarian,23.2 µM
same,TGI,HCT-116 colon,20.2 µM
same,TGI,SF-539 CNS,36.2 µM
same,TGI,A549 NSCLC,> 100 µM
same,TGI,PC-3 prostate,36.3 µM
same,TGI,SNB-75 CNS,39.6 µM
same,TGI,DU-145 prostate,16.1 µM
same,TGI,SK-MEL-28 melanoma,41.9 µM
same,TGI,LOX IMVI melanoma,38.1 µM
same,TGI,SK-OV-3 ovarian,> 100 µM
same,TGI,OVCAR-5 ovarian,32.9 µM
same,TGI,NCI/ADR-RES ovarian,40.4 µM
same,TGI,MDA-MB-231 breast,34 µM
same,TGI,786-0 renal,31.5 µM
same,TGI,SK-MEL-2 melanoma,29.8 µM
same,TGI,SF-295 CNS,> 100 µM
same,TGI,UO-31 renal,24.1 µM
same,TGI,M14 melanoma,32.7 µM
same,TGI,SNB-19 CNS,50 µM
same,TGI,SK-MEL-5 melanoma,22.9 µM
same,TGI,MCF7 breast,14.9 µM
same,TGI,UACC-257 melanoma,41.7 µM
same,TGI,NCI-H23 lung,29.9 µM
same,TGI,HOP-92 NSCLC,55 µM
same,TGI,KM12 colon,37.9 µM
same,TGI,HOP-62 NSCLC,34.4 µM
same,TGI,SW-620 colon,22.6 µM
same,TGI,HT29 colon,24.6 µM
same,TGI,MDA-MB-435,30.5 µM
same,TGI,HL-60(TB) leukemia,4.08 µM
same,TGI,HCT-15 colon,15.2 µM
same,TGI,CCRF-CEM leukemia,> 100 µM
same,TGI,U251 CNS,39.1 µM
same,TGI,EKVX NSCLC,28.8 µM
same,TGI,OVCAR-8 ovarian,42.9 µM
same,TGI,OVCAR-3 ovarian,19.9 µM
same,TGI,NCI-H522 lung,20.3 µM
same,TGI,ACHN renal,8.69 µM
same,TGI,TK-10 renal,25.7 µM
same,TGI,MOLT-4 leukemia,21.8 µM
same,TGI,MALME-3M melanoma,21.7 µM
same,TGI,IGROV1 ovarian,32.2 µM
same,TGI,HS 578T breast,99.7 µM
same,TGI,BT-549 breast,27.6 µM
same,TGI,SN12C renal,26.2 µM
same,TGI,RXF 393 renal,18.2 µM
same,TGI,COLO 205 colon,11.4 µM
same,TGI,HCC-2998 colon,28.1 µM
same,TGI,CAKI-1 renal,21.6 µM
same,TGI,SF-268 CNS,42.5 µM
NCCN(CCN(C(=O)Nc1ccccc1)c1ccccc1)C(=O)Nc1ccccc1,TGI,UACC-62 melanoma,35.3 µM
same,TGI,NCI-H226 lung,98.6 µM
same,TGI,K-562 leukemia,> 100 µM
same,TGI,RPMI-8226 leukemia,> 100 µM
same,TGI,T-47D breast,90.8 µM
same,TGI,MDA-N,47.8 µM
same,TGI,HCT-116 colon,33.5 µM
same,TGI,A549 NSCLC,> 100 µM
same,TGI,PC-3 prostate,90.3 µM
same,TGI,SNB-75 CNS,45.4 µM
same,TGI,DU-145 prostate,40.1 µM
same,TGI,SK-MEL-28 melanoma,35.9 µM
same,TGI,LOX IMVI melanoma,47.6 µM
same,TGI,SK-OV-3 ovarian,44.9 µM
same,TGI,OVCAR-5 ovarian,45.6 µM
same,TGI,NCI/ADR-RES ovarian,> 100 µM
same,TGI,MDA-MB-231 breast,> 100 µM
same,TGI,786-0 renal,55.4 µM
same,TGI,SK-MEL-2 melanoma,45.2 µM
same,TGI,SF-295 CNS,36.4 µM
same,TGI,NCI-H460 lung,42.8 µM
same,TGI,UO-31 renal,39.3 µM
same,TGI,SR leukemia,> 100 µM
same,TGI,M14 melanoma,53.4 µM
same,TGI,A498 renal,40.5 µM
same,TGI,SNB-19 CNS,> 100 µM
same,TGI,SK-MEL-5 melanoma,43.1 µM
same,TGI,MCF7 breast,46.6 µM
same,TGI,UACC-257 melanoma,36.4 µM
same,TGI,NCI-H23 lung,63 µM
same,TGI,HOP-92 NSCLC,44.2 µM
same,TGI,HOP-62 NSCLC,34.8 µM
same,TGI,SW-620 colon,48.3 µM
same,TGI,HT29 colon,> 100 µM
same,TGI,HL-60(TB) leukemia,74.8 µM
same,TGI,HCT-15 colon,76.4 µM
same,TGI,CCRF-CEM leukemia,> 100 µM
same,TGI,U251 CNS,> 100 µM
same,TGI,EKVX NSCLC,67.3 µM
same,TGI,OVCAR-8 ovarian,52.2 µM
same,TGI,NCI-H522 lung,41.1 µM
same,TGI,ACHN renal,59.9 µM
same,TGI,TK-10 renal,60.3 µM
same,TGI,MOLT-4 leukemia,> 100 µM
same,TGI,MALME-3M melanoma,34.2 µM
same,TGI,IGROV1 ovarian,36.7 µM
same,TGI,HS 578T breast,56 µM
same,TGI,BT-549 breast,69.4 µM
same,TGI,SN12C renal,69.7 µM
same,TGI,RXF 393 renal,34.5 µM
same,TGI,COLO 205 colon,67.4 µM
same,TGI,HCC-2998 colon,44.3 µM
same,TGI,SF-268 CNS,49 µM
